Experimental data: publication PMC5218480 (PLoS ONE, 2017)

Test system: MV-4-11 cells
Assay: Gene expression microarray analysis (Affymetrix PrimeView) and GSEA
Assay type: cell-based, human
Set-up: RFU PODN (11730768_x_at) / Fold change /veh PODN (11730768_x_at) / RFU LINC00158 (11744669_a_at) / Fold change /veh LINC00158 (11744669_a_at) / RFU DUSP10 (11751237_a_at) / Fold change /veh DUSP10 (11751237_a_at) / RFU ID3 (11757404_x_at) / Fold change /veh ID3 (11757404_x_at) / RFU PLEKHG5 (11737974_s_at) / Fold change /veh PLEKHG5 (11737974_s_at) / RFU LRRC4B (11730491_at) / Fold change /veh LRRC4B (11730491_at) / RFU GIMAP4 (11747438_a_at) / Fold change /veh GIMAP4 (11747438_a_at) / RFU KRT8 (11758183_x_at) / Fold change /veh KRT8 (11758183_x_at) / RFU CNN1 (11734310_a_at) / Fold change /veh CNN1 (11734310_a_at) / RFU VPS37D (11726825_at) / Fold change /veh VPS37D (11726825_at) / RFU C10orf10 (11716522_x_at) / Fold change /veh C10orf10 (11716522_x_at) / RFU KIR2DL2 /// KIR2DL4 /// KIR2DL5A /// KIR2DL5B /// KIR2DS1 /// KIR2DS2 /// KIR2DS3 /// KIR2DS4 /// KIR3DL3 /// KIR3DL3 /// KIR3DS1 (11738374_at) / Fold change /veh KIR2DL2 /// KIR2DL4 /// KIR2DL5A /// KIR2DL5B /// KIR2DS1 /// KIR2DS2 /// KIR2DS3 /// KIR2DS4 /// KIR3DL3 /// KIR3DL3 /// KIR3DS1 (11738374_at) / RFU C1QL1 (11718748_at) / Fold change /veh C1QL1 (11718748_at) / RFU TMPRSS4 (11747572_a_at) / Fold change /veh TMPRSS4 (11747572_a_at) / RFU HAMP (11756126_x_at) / Fold change /veh HAMP (11756126_x_at) / RFU RNFT2 (11725882_a_at) / Fold change /veh RNFT2 (11725882_a_at) / RFU NR4A2 (11747474_a_at) / Fold change /veh NR4A2 (11747474_a_at) / RFU ABCC12 (11746883_a_at) / Fold change /veh ABCC12 (11746883_a_at) / RFU TMEM136 (11760407_x_at) / Fold change /veh TMEM136 (11760407_x_at) / RFU CLDN22 /// WWC2 (11732394_at) / Fold change /veh CLDN22 /// WWC2 (11732394_at) / RFU HLA-DPB1 (11760878_x_at) / Fold change /veh HLA-DPB1 (11760878_x_at) / RFU SPINT1 (11716480_a_at) / Fold change /veh SPINT1 (11716480_a_at) / RFU GAP43 (11754022_s_at) / Fold change /veh GAP43 (11754022_s_at) / RFU A4GNT (11735810_at) / Fold change /veh A4GNT (11735810_at) / RFU PRB3 (11715151_x_at) / Fold change /veh PRB3 (11715151_x_at) / RFU TUBB4B (11761932_at) / Fold change /veh TUBB4B (11761932_at) / RFU CAPN14 (11732068_a_at) / Fold change /veh CAPN14 (11732068_a_at) / RFU TMCC2 (11721928_a_at) / Fold change /veh TMCC2 (11721928_a_at) / RFU IRGQ (11745062_a_at) / Fold change /veh IRGQ (11745062_a_at) / RFU FAM174B (11720279_a_at) / Fold change /veh FAM174B (11720279_a_at) / RFU TMPRSS4 (11748680_a_at) / Fold change /veh TMPRSS4 (11748680_a_at) / RFU FAM212B (11763350_a_at) / Fold change /veh FAM212B (11763350_a_at) / RFU PLEKHG5 (11743358_a_at) / Fold change /veh PLEKHG5 (11743358_a_at) / RFU ZSCAN30 (11745921_a_at) / Fold change /veh ZSCAN30 (11745921_a_at) / RFU CMKLR1 (11741424_a_at) / Fold change /veh CMKLR1 (11741424_a_at) / RFU LOC101060620 /// MAPK8IP1 (11723275_at) / Fold change /veh LOC101060620 /// MAPK8IP1 (11723275_at) / RFU SPTSSB (11747773_x_at) / Fold change /veh SPTSSB (11747773_x_at) / RFU PRSS12 (11739890_at) / Fold change /veh PRSS12 (11739890_at) / RFU BIN1 (11741810_x_at) / Fold change /veh BIN1 (11741810_x_at) / RFU WNT11 (11732464_a_at) / Fold change /veh WNT11 (11732464_a_at) / RFU C10orf10 (11716521_a_at) / Fold change /veh C10orf10 (11716521_a_at) / RFU C5orf56 (11738089_at) / Fold change /veh C5orf56 (11738089_at) / RFU CYB561 (11721691_x_at) / Fold change /veh CYB561 (11721691_x_at) / RFU ANKRD19P (11752326_a_at) / Fold change /veh ANKRD19P (11752326_a_at) / RFU OR2T12 /// OR2T33 /// OR2T8 (11738714_s_at) / Fold change /veh OR2T12 /// OR2T33 /// OR2T8 (11738714_s_at) / RFU VCAN (11748164_a_at) / Fold change /veh VCAN (11748164_a_at) / RFU JSRP1 (11732532_at) / Fold change /veh JSRP1 (11732532_at) / RFU KRTAP10-11 (11738290_x_at) / Fold change /veh KRTAP10-11 (11738290_x_at) / RFU MYO3A (11730013_a_at) / Fold change /veh MYO3A (11730013_a_at) / RFU EBF3 (11725865_a_at) / Fold change /veh EBF3 (11725865_a_at) / RFU CAMK2N1 (11719241_x_at) / Fold change /veh CAMK2N1 (11719241_x_at) / RFU C5orf56 (11738088_a_at) / Fold change /veh C5orf56 (11738088_a_at) / RFU OLFML3 (11715873_a_at) / Fold change /veh OLFML3 (11715873_a_at) / RFU LOC100653217 /// NTM (11731650_a_at) / Fold change /veh LOC100653217 /// NTM (11731650_a_at) / RFU MAPK11 (11762145_a_at) / Fold change /veh MAPK11 (11762145_a_at) / RFU FIZ1 (11724087_x_at) / Fold change /veh FIZ1 (11724087_x_at) / RFU OASL (11726364_x_at) / Fold change /veh OASL (11726364_x_at) / RFU SOX15 (11748057_x_at) / Fold change /veh SOX15 (11748057_x_at) / RFU CD79A (11719716_a_at) / Fold change /veh CD79A (11719716_a_at) / RFU HIST1H1D (11736915_at) / Fold change /veh HIST1H1D (11736915_at) / RFU CASKIN2 (11723855_a_at) / Fold change /veh CASKIN2 (11723855_a_at) / RFU LOC730098 (11760151_x_at) / Fold change /veh LOC730098 (11760151_x_at) / RFU OR4N2 (11742367_at) / Fold change /veh OR4N2 (11742367_at) / RFU PRRT2 (11749266_a_at) / Fold change /veh PRRT2 (11749266_a_at) / RFU SNX32 (11753110_a_at) / Fold change /veh SNX32 (11753110_a_at) / RFU CDHR5 (11726645_a_at) / Fold change /veh CDHR5 (11726645_a_at) / RFU RCAN1 (11760418_a_at) / Fold change /veh RCAN1 (11760418_a_at) / RFU FAM167A (11723789_a_at) / Fold change /veh FAM167A (11723789_a_at) / RFU FAM26E (11764081_at) / Fold change /veh FAM26E (11764081_at) / RFU ISYNA1 (11749810_s_at) / Fold change /veh ISYNA1 (11749810_s_at) / RFU ACY1 (11761880_at) / Fold change /veh ACY1 (11761880_at) / RFU 11764098_at / Fold change /veh 11764098_at / RFU SAMD14 (11745864_x_at) / Fold change /veh SAMD14 (11745864_x_at) / RFU NPB (11741838_a_at) / Fold change /veh NPB (11741838_a_at) / RFU TMPRSS6 (11731388_a_at) / Fold change /veh TMPRSS6 (11731388_a_at) / RFU KRTAP10-2 (11738614_at) / Fold change /veh KRTAP10-2 (11738614_at) / RFU ARHGAP8 /// PRR5-ARHGAP8 (11727945_x_at) / Fold change /veh ARHGAP8 /// PRR5-ARHGAP8 (11727945_x_at) / RFU KRTAP5-7 /// NADSYN1 (11734609_at) / Fold change /veh KRTAP5-7 /// NADSYN1 (11734609_at) / RFU RASL12 (11751679_a_at) / Fold change /veh RASL12 (11751679_a_at) / RFU CDKN2B (11736163_a_at) / Fold change /veh CDKN2B (11736163_a_at) / RFU PRF1 (11729649_at) / Fold change /veh PRF1 (11729649_at) / RFU, ZNF638 /// ZNF638-IT1 / Fold change vs veh, ZNF638 /// ZNF638-IT1 / RFU, PANK3 / Fold change vs veh, PANK3 / RFU, SH3YL1 / Fold change vs veh, SH3YL1 / RFU, ZEB2 / Fold change vs veh, ZEB2 / RFU, NRIP1 / Fold change vs veh, NRIP1 / RFU, PTTG1IP / Fold change vs veh, PTTG1IP / RFU, CAPN2 / Fold change vs veh, CAPN2 / RFU, MED14 / Fold change vs veh, MED14 / RFU, SNORA58 / Fold change vs veh, SNORA58 / RFU, C1orf63 / Fold change vs veh, C1orf63 / RFU, LRRFIP1 / Fold change vs veh, LRRFIP1 / RFU, NDUFAF7 / Fold change vs veh, NDUFAF7 / RFU, SLC12A2 / Fold change vs veh, SLC12A2 / RFU, IBTK / Fold change vs veh, IBTK / RFU, ESF1 / Fold change vs veh, ESF1 / Fold change vs veh, TMEM50B / RFU, TAOK1 / Fold change vs veh, TAOK1 / RFU, ACBD3 / Fold change vs veh, ACBD3 / RFU, TMA16 / Fold change vs veh, TMA16 / RFU, RWDD3 / Fold change vs veh, RWDD3 / RFU, BCAT1 / Fold change vs veh, BCAT1 / RFU, EDEM3 / Fold change vs veh, EDEM3 / RFU, TMEM33 / Fold change vs veh, TMEM33 / RFU, WDR75 / Fold change vs veh, WDR75 / RFU, AHCTF1 / Fold change vs veh, AHCTF1 / RFU, TFRC / Fold change vs veh, TFRC / RFU, ZDHHC17 / Fold change vs veh, ZDHHC17 / RFU, NOM1 / Fold change vs veh, NOM1 / RFU, ARL8B / Fold change vs veh, ARL8B / RFU, ZBTB11 / Fold change vs veh, ZBTB11 / RFU, TAMM41 / Fold change vs veh, TAMM41 / RFU, KIAA1704 /// LOC100996395 / Fold change vs veh, KIAA1704 /// LOC100996395 / RFU, ING1 / Fold change vs veh, ING1 / RFU, TRMT61B / Fold change vs veh, TRMT61B / RFU, FUBP3 / Fold change vs veh, FUBP3 / RFU, TP53 / Fold change vs veh, TP53 / RFU, TNKS2 / Fold change vs veh, TNKS2 / RFU, ZFP14 / Fold change vs veh, ZFP14 / RFU, ACTR2 / Fold change vs veh, ACTR2 / RFU, PPP3R1 / Fold change vs veh, PPP3R1 / RFU, PIK3R1 / Fold change vs veh, PIK3R1 / RFU, HNRNPA1 / Fold change vs veh, HNRNPA1 / RFU, RNF170 / Fold change vs veh, RNF170 / RFU, ZNF28 / Fold change vs veh, ZNF28 / RFU, RNGTT / Fold change vs veh, RNGTT / RFU, OGT / Fold change vs veh, OGT / RFU, BRD1 / Fold change vs veh, BRD1 / RFU, MARS / Fold change vs veh, MARS / RFU, ZNF655 / Fold change vs veh, ZNF655 / RFU, FAHD1 / Fold change vs veh, FAHD1 / RFU, BDP1 / Fold change vs veh, BDP1 / RFU, LRRCC1 / Fold change vs veh, LRRCC1 / RFU, ARID1A / Fold change vs veh, ARID1A / RFU, ZNF146 / Fold change vs veh, ZNF146 / RFU, ZNF330 / Fold change vs veh, ZNF330 / RFU, GPN3 / Fold change vs veh, GPN3 / RFU, C9orf123 / Fold change vs veh, C9orf123 / RFU, N4BP2L2 / Fold change vs veh, N4BP2L2 / RFU, ARFIP1 / Fold change vs veh, ARFIP1 / RFU, FAM179B / Fold change vs veh, FAM179B / RFU, BCL10 / Fold change vs veh, BCL10 / RFU, UHRF1BP1L / Fold change vs veh, UHRF1BP1L / RFU, BET1 / Fold change vs veh, BET1 / RFU, CNOT2 / Fold change vs veh, CNOT2 / RFU, ZNF268 / Fold change vs veh, ZNF268 / Fold change vs veh, ZNF507 / RFU, DGCR2 / Fold change vs veh, DGCR2 / RFU, WDSUB1 / Fold change vs veh, WDSUB1 / Fold change vs veh, HSP90B1 /// MIR3652 / RFU, ADSS / Fold change vs veh, ADSS / RFU, GK / Fold change vs veh, GK / RFU, ZNF148 / Fold change vs veh, ZNF148 / RFU, TAF9 / Fold change vs veh, TAF9 / RFU, SLC1A5 / Fold change vs veh, SLC1A5 / RFU, SLMO2 / Fold change vs veh, SLMO2 / RFU, ABCC4 / Fold change vs veh, ABCC4 / RFU, LOC101060439 /// RAP1B / Fold change vs veh, LOC101060439 /// RAP1B / RFU, RFX7 / Fold change vs veh, RFX7 / RFU, GTPBP10 / Fold change vs veh, GTPBP10 / RFU, CNEP1R1 / Fold change vs veh, CNEP1R1 / RFU, BIVM-ERCC5 /// ERCC5 / Fold change vs veh, BIVM-ERCC5 /// ERCC5 / RFU, ILF3 / Fold change vs veh, ILF3 / RFU 11762660_at / Fold change /veh 11762660_at / RFU VCAN (11757783_s_at) / Fold change /veh VCAN (11757783_s_at) / RFU DDX43 (11728927_at) / Fold change /veh DDX43 (11728927_at) / RFU KRT8 (11758188_x_at) / Fold change /veh KRT8 (11758188_x_at) / RFU NKD1 (11759106_at) / Fold change /veh NKD1 (11759106_at) / RFU SRD5A1 (11742802_a_at) / Fold change /veh SRD5A1 (11742802_a_at) / RFU TPSAB1 /// TPSB2 (11721975_s_at) / Fold change /veh TPSAB1 /// TPSB2 (11721975_s_at) / RFU GSTM3 (11746129_a_at) / Fold change /veh GSTM3 (11746129_a_at) / RFU IL23R (11737362_x_at) / Fold change /veh IL23R (11737362_x_at) / RFU TMEM51 (11727254_a_at) / Fold change /veh TMEM51 (11727254_a_at) / RFU PIWIL2 (11732686_x_at) / Fold change /veh PIWIL2 (11732686_x_at) / RFU ORM1 (11744905_x_at) / Fold change /veh ORM1 (11744905_x_at) / RFU CCDC152 (11743942_at) / Fold change /veh CCDC152 (11743942_at) / RFU ECM1 (11717891_a_at) / Fold change /veh ECM1 (11717891_a_at) / RFU IL23R (11748794_a_at) / Fold change /veh IL23R (11748794_a_at) / RFU TNFAIP8L3 (11732012_x_at) / Fold change /veh TNFAIP8L3 (11732012_x_at) / RFU MBOAT4 (11741988_at) / Fold change /veh MBOAT4 (11741988_at) / RFU 11764193_at / Fold change /veh 11764193_at / RFU TMEM53 (11763286_at) / Fold change /veh TMEM53 (11763286_at) / RFU MAGEB2 (11727129_at) / Fold change /veh MAGEB2 (11727129_at) / RFU TMEM200A (11744735_a_at) / Fold change /veh TMEM200A (11744735_a_at) / RFU CCDC152 (11751479_a_at) / Fold change /veh CCDC152 (11751479_a_at) / RFU FAM211A (11726209_a_at) / Fold change /veh FAM211A (11726209_a_at) / RFU RGS16 (11746705_a_at) / Fold change /veh RGS16 (11746705_a_at) / RFU VCAN (11755009_s_at) / Fold change /veh VCAN (11755009_s_at) / RFU RHOB (11743442_s_at) / Fold change /veh RHOB (11743442_s_at) / RFU RGS16 (11720943_a_at) / Fold change /veh RGS16 (11720943_a_at) / RFU RGS16 (11720944_at) / Fold change /veh RGS16 (11720944_at) / RFU, VPS4B / Fold change vs veh, VPS4B / RFU, CREB1 / Fold change vs veh, CREB1 / RFU, DNAJC13 / Fold change vs veh, DNAJC13 / RFU, GNAQ / Fold change vs veh, GNAQ / RFU, CDK5R1 / Fold change vs veh, CDK5R1 / RFU, ZRANB3 / Fold change vs veh, ZRANB3 / RFU, CUL4A / Fold change vs veh, CUL4A / RFU, CCNY / Fold change vs veh, CCNY / RFU, UFL1 / Fold change vs veh, UFL1 / RFU, COG3 / Fold change vs veh, COG3 / RFU, DIAPH2 / Fold change vs veh, DIAPH2 / RFU, SKA2 / Fold change vs veh, SKA2 / RFU, AFF3 / Fold change vs veh, AFF3 / RFU, LMF1 / Fold change vs veh, LMF1 / RFU, IPO11 / Fold change vs veh, IPO11 / RFU, DFFB / Fold change vs veh, DFFB / RFU, FOXP1 / Fold change vs veh, FOXP1 / RFU, CARD8 / Fold change vs veh, CARD8 / RFU, STRN3 / Fold change vs veh, STRN3 / RFU, ADK / Fold change vs veh, ADK / RFU, RASSF2 / Fold change vs veh, RASSF2 / RFU, WIPF1 / Fold change vs veh, WIPF1 / RFU, LARP1B / Fold change vs veh, LARP1B / RFU, RASA1 / Fold change vs veh, RASA1 / RFU, RB1 / Fold change vs veh, RB1 / RFU, PPFIA1 / Fold change vs veh, PPFIA1 / RFU, MAT2A / Fold change vs veh, MAT2A / RFU, CCT5 / Fold change vs veh, CCT5 / RFU, WDR92 / Fold change vs veh, WDR92 / RFU, CUX1 / Fold change vs veh, CUX1 / RFU, TTC7A / Fold change vs veh, TTC7A / RFU, TMEM135 / Fold change vs veh, TMEM135 / RFU, DEPTOR / Fold change vs veh, DEPTOR / RFU, CPM / Fold change vs veh, CPM / RFU, DNAJB6 / Fold change vs veh, DNAJB6 / RFU, CACNA2D3 / Fold change vs veh, CACNA2D3 / RFU, DTX4 / Fold change vs veh, DTX4 / RFU, TFCP2 / Fold change vs veh, TFCP2 / RFU, GMCL1 /// GMCL1P1 / Fold change vs veh, GMCL1 /// GMCL1P1 / RFU, AEBP2 / Fold change vs veh, AEBP2 / RFU, SNHG1 /// SNORD22 /// SNORD25 /// SNORD26 /// SNORD27 /// SNORD28 /// SNORD29 /// SNORD31 / Fold change vs veh, SNHG1 /// SNORD22 /// SNORD25 /// SNORD26 /// SNORD27 /// SNORD28 /// SNORD29 /// SNORD31 / Fold change (Aza/veh), C12orf56 (ProbeSet 11735607_a_at) / Fold change (ACY-1035/veh), C12orf56 (ProbeSet 11735607_a_at) / Fold change (Aza/veh), FGFR1OP (ProbeSet 11751329_s_at) / Fold change (ACY-1035/veh), FGFR1OP (ProbeSet 11751329_s_at) / Fold change (Aza/veh), VPS36 (ProbeSet 11739960_a_at) / Fold change (ACY-1035/veh), VPS36 (ProbeSet 11739960_a_at) / RFU SYPL1 (11715823_x_at) / Fold change /veh SYPL1 (11715823_x_at) / RFU IGFBP7 (11715501_s_at) / Fold change /veh IGFBP7 (11715501_s_at) / RFU REEP3 (11722064_at) / Fold change /veh REEP3 (11722064_at) / RFU IGLL1 (11728026_x_at) / Fold change /veh IGLL1 (11728026_x_at): dose or concentration left out as unconfirmed
Details: MV-4-11 cells, 48 hours

`Nc1ccc(-c2cccs2)cc1NC(=O)c1ccc2c(c1)cc(C1CC1)n2CCN1CCOCC1` [ACY-1035] was tested, and the “Fold change /veh MAGEB2 (11727129_at)” value was 0.99.
